From ChEMBL document CHEMBL1201862, “PubChem BioAssay data set” (2004)
Activity calls are given as the source filed them.

Assays:
[1] = biological target: T1, DNA repair protein RAD52 homolog (Homo sapiens, UniProt P43351); assay type: functional, biochemical
T1 sequence (P43351 whole entry): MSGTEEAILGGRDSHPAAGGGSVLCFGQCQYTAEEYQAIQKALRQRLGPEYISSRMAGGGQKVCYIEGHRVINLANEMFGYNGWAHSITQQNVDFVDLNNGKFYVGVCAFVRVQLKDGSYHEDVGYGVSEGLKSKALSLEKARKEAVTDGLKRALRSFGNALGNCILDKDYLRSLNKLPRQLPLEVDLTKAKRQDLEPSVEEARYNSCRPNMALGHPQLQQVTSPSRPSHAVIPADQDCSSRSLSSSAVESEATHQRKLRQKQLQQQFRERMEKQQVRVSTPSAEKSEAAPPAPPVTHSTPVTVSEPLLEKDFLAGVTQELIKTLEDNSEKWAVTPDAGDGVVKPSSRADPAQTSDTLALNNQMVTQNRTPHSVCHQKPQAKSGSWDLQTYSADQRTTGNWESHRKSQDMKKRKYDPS

[2] = biological target: T2, Long-chain-fatty-acid--AMP ligase FadD28 (Mycobacterium tuberculosis, UniProt P9WQ59); assay: Fluorescence polarization aasay to screen for inhibitors that compete for the binding of FadD28 to a bisubstrate Measured in Biochemical System Using Plate Reader - 2147-01_Inhibitor_Dose_CherryPick_Activity.; assay type: functional, Mycobacterium tuberculosis H37Rv
T2 sequence (P9WQ59 whole entry): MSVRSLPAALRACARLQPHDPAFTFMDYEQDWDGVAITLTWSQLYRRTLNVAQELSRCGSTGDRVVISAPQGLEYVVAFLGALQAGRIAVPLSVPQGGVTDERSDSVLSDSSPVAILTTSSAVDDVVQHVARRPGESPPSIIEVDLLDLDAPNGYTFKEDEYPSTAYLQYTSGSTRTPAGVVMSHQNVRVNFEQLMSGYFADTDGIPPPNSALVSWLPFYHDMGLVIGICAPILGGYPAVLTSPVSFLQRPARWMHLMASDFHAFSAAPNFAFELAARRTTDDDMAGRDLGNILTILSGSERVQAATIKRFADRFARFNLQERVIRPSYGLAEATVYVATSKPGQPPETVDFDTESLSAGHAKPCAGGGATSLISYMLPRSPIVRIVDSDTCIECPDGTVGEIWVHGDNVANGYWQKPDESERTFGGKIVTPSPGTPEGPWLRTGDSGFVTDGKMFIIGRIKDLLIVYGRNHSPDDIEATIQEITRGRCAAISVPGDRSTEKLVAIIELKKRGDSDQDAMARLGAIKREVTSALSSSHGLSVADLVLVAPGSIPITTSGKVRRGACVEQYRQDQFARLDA

[3] = blockers of HIV-1 envelope-mediated cell-cell fusion – cherry-pick, dose response (AID 652057); assay type: functional, cell-based
[4] = blockers of HIV-1 ZM109 envelope-driven cell-cell fusion – HeLa effector, CEM target cells, luciferase, cherry-pick, dose response (AID 652058); assay type: functional, cell-based;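 also: luciferase signal from HIV-1 Env mediated cell-cell fusion of effector and target cells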
[5] = HIV-1 AD8 envelope cell-cell fusion blockers – cherry-pick, dose response (AID 652062); assay type: functional, cell-based;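 also: luciferase signal from cell-cell fusion driven by HIV-1 clade B AD8 Env; potency is for inhibitors of fusion seen as a drop in luminescence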
[6] = HEK-293T viability loss after treatment – luminescence, T-cell screen hits, cytotoxicity control for TCR NF-kB inhibitor project, dose response (AID 489026); assay type: functional, cell-based;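 also: cells exposed to compound about 14 hours before the viability readout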
[7] = biological target: T3, Carboxy-terminal domain RNA polymerase II polypeptide A small phosphatase 1 (Homo sapiens, UniProt Q9GZU7); assay: CTDSP1 inhibitors, concentration-response, biochemical, absorbance readout, ultra-high-throughput screen actives (AID 540297); assay type: functional
T3 sequence (Q9GZU7 whole entry): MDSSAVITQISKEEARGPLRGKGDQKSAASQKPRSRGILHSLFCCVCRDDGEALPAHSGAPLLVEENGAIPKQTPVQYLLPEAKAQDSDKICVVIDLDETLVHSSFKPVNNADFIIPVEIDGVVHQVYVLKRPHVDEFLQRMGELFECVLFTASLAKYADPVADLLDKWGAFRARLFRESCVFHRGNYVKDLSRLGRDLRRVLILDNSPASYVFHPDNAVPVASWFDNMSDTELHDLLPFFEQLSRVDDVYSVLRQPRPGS

[8] = tested on: INS1; assay: INS-1E survival protection against cytokine death – cell-based, luminescence, retest, dose response (AID 449756); assay type: functional; details: Rattus norvegicus;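 also: cell death triggered by IL-1 beta plus TNF-alpha plus IFN-gamma mixture; protective hits raise ATP signal compared with cytokine alone wells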
[9] = reduction of Shn3 3'UTR-driven luciferase in osteoblasts – cell-based, Clone20 osteoblasts, firefly luciferase, cherry-picked, dose response (AID 624132); assay type: functional;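 also: firefly luciferase luminescence from reporter carrying the Shn3 3'UTR in osteoblasts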
[10] = loss of viability in HepG2 cells – cell-based, CellTiter-Glo, cherry-picked, cytotoxicity control for Shn3 inhibitor project, dose response (AID 624134); assay type: functional
[11] = non-specific 3'UTR reporter inhibition in Clone20-Shn3RL – cell-based, Renilla luciferase, cherry-picked, counter-screen for Shn3 inhibitor project, dose response (AID 624133); assay type: functional
[12] = biological target: T4, Cytochrome P450 1A2 (Homo sapiens, UniProt P05177);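 also: PubChem cytochrome P450 panel assay, CYP1A2 panel member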
T4 sequence (P05177 whole entry): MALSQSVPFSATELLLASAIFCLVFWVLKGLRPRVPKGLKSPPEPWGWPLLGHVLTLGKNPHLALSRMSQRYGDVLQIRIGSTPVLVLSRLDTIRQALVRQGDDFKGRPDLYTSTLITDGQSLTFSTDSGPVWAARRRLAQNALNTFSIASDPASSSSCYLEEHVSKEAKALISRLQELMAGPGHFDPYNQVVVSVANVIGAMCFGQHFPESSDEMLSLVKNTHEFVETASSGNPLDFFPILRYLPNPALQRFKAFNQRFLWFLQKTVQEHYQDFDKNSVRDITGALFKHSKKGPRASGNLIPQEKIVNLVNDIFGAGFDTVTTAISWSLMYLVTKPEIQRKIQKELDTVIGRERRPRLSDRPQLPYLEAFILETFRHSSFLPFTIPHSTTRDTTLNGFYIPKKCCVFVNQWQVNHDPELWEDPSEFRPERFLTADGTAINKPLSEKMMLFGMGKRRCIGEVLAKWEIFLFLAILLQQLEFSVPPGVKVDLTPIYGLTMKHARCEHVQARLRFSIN

[13] = luciferase reporter signal suppression in cells – H4 neuroglioma cells, luminescence, dose response (AID 1990); assay type: functional, cell-based
[14] = Luminescence Cell-Based Dose Response HTS to Identify Inhibitors of 5'UTR Stem-Loop Driven Prion Protein mRNA Translation in H4 Neuroglioblastoma Cells. [Related pubchem assays: 1827 (Project Summary), 1813 (Primary HTS)]; assay type: functional
[15] = alpha-synuclein stem-loop luciferase translation blockers – H4 neuroglioma cells, luminescence, confirmation (AID 1988); assay type: functional, cell-based
[16] = Trypanosoma cruzi growth suppression in host cells – NIH3T3 host cells, beta-gal luminescence, confirmation (AID 2044); assay type: functional, cell-based;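 also: intracellular parasites grown in NIH/3T3 mouse fibroblasts as host cells; luminescent beta-galactosidase reporter signal from transgenic T. cruzi replicating inside host cells; inhibitors lower the luminescence signal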
[17] = NIH3T3 cell viability loss – ATP luminescence, mouse fibroblasts, counter-screen, dose response (AID 2010); assay type: functional, cell-based;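 also: cells exposed to compound for about 90 hours before reading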
[18] = biological target: T5, Fatty acid synthase (Homo sapiens, UniProt P49327); assay: inhibition of human FAS-TE enzyme activity – biochemical, endpoint fluorescence intensity, uHTS hits, dose response (AID 624327); assay type: functional;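 also: fluorescence from hydrolysis of an O-methyl fluorescein acyl ester substrate by the enzyme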
[19] = biological target: T5, Fatty acid synthase; assay: inhibition of human FAS-TE enzyme activity – biochemical, kinetic fluorescence intensity, dose response (AID 624326); assay type: functional;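 also: rate of fluorescence rise from hydrolysis of a fluorogenic O-methyl fluorescein ester substrate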
[20] = biological target: T6, Histone-lysine N-methyltransferase NSD2 (Homo sapiens, UniProt O96028); assay type: biochemical
T6 sequence (O96028 whole entry): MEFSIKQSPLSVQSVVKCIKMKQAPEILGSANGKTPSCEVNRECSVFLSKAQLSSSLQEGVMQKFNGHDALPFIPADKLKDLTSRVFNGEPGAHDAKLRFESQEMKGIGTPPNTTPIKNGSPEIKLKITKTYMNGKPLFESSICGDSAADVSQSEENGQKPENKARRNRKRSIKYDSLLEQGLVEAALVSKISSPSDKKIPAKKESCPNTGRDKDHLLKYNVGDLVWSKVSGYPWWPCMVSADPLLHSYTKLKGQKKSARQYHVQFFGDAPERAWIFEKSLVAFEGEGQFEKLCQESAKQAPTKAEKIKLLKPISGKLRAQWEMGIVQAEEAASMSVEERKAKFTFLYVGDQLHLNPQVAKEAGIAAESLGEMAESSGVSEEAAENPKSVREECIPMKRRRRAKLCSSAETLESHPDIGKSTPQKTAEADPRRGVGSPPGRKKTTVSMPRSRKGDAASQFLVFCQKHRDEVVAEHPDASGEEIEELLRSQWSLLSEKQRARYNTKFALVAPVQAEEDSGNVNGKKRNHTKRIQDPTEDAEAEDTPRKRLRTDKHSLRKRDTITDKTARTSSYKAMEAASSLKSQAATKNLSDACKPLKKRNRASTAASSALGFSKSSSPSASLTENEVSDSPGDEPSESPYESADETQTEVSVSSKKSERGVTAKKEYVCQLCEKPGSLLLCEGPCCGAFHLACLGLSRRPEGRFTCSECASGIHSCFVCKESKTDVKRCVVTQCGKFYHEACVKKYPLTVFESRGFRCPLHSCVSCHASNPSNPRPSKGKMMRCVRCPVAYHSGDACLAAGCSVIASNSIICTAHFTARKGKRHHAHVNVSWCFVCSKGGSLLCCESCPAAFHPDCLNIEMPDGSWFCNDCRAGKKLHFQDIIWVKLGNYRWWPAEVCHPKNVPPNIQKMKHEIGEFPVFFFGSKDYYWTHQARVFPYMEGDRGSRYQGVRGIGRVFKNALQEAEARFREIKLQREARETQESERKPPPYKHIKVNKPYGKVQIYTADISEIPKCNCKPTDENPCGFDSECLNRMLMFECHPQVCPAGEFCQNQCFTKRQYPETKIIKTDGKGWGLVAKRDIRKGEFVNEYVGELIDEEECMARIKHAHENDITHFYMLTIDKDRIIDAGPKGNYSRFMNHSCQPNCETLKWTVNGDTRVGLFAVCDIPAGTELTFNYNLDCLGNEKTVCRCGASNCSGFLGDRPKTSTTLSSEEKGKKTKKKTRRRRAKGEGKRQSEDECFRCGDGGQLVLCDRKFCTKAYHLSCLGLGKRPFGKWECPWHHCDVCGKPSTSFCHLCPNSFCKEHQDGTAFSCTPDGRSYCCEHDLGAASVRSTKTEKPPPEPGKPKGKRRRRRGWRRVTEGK

T5 sequence (P49327 whole entry): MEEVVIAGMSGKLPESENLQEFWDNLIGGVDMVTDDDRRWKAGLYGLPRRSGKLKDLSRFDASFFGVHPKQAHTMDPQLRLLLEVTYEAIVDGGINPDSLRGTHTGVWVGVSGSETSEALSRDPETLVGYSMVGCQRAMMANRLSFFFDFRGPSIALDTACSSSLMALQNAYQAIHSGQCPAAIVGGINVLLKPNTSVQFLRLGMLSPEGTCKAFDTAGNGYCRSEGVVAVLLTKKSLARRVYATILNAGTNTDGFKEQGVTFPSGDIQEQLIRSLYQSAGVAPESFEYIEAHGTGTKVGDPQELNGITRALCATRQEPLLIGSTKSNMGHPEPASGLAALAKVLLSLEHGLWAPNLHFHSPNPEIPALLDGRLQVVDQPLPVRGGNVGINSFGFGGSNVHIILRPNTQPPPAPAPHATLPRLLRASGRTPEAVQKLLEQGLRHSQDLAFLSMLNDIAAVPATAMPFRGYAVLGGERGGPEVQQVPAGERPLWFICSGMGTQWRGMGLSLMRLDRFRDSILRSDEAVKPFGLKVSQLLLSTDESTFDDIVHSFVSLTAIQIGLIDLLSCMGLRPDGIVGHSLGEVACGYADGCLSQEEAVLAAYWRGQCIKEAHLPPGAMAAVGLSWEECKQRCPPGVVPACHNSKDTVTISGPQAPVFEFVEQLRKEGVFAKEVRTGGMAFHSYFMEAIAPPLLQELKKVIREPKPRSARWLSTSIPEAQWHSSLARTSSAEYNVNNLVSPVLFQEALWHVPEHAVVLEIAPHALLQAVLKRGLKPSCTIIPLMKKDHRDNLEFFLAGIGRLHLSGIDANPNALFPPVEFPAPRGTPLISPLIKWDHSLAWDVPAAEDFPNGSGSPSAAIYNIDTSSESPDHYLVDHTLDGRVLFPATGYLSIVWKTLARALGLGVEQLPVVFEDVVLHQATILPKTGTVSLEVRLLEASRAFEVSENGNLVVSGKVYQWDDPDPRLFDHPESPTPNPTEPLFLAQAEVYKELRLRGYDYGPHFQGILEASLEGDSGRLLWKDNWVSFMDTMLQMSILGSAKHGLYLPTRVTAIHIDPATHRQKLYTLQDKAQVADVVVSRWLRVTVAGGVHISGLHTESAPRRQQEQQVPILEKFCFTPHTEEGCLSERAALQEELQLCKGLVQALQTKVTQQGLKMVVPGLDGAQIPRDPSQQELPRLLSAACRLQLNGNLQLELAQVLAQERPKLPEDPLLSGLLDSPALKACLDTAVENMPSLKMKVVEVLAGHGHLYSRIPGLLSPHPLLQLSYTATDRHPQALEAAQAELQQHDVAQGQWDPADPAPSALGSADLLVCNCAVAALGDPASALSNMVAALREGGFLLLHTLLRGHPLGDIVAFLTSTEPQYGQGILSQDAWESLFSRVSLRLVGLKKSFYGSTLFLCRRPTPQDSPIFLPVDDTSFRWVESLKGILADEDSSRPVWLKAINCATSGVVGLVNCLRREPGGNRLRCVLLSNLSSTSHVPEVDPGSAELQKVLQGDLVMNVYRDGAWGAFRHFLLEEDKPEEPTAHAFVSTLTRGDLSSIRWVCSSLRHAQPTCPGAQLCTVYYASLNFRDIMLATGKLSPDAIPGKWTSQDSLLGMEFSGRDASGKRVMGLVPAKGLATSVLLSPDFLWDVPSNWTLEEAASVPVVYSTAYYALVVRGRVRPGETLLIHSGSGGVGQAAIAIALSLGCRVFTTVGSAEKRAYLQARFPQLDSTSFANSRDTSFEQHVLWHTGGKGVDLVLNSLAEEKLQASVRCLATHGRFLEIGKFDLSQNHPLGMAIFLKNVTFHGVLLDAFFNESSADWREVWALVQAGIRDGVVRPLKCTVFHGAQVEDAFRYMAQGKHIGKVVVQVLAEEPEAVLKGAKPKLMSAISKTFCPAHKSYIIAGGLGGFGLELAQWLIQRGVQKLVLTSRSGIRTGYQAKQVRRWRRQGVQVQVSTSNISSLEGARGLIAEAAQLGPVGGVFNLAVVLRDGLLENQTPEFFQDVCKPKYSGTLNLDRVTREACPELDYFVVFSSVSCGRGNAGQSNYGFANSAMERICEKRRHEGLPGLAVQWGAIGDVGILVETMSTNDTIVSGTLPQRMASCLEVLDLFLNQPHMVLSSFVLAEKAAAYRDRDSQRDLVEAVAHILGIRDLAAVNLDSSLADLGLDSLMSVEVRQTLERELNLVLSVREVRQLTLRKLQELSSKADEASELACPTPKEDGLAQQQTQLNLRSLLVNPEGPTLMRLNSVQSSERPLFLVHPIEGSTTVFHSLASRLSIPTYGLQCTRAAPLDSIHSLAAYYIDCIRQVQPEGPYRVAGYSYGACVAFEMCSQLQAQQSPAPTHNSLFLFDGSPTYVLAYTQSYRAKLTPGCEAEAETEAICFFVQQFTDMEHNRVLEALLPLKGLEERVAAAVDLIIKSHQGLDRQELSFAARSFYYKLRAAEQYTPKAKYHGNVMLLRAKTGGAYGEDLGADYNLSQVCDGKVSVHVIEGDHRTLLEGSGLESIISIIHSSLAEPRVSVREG

## Cc1cc(N2CCN(C)CC2)nc2ccc(NC(S)=NCc3cccs3)cc12
[1]
  AC50: 17 µM (active)

## COc1ccc(NS(=O)(=O)c2cc(NC(=O)COc3ccccc3)ccc2N2CCOCC2)cc1
[2]
  AC50: > 100 µM (inactive)

## O=C(NCCCc1nc2ccccc2[nH]1)c1ccco1
[3]
  AC50: 48.8 µM (active)
[4]
  AC50: 1.61 µM (active)

## Cc1ccc(NC(=O)Nc2sc(=S)n(C)c2C)cc1
[2]
  AC50: > 100 µM (inactive)

## Cc1ccc(-c2ccc3c(c2)O[C@@H](CN(C)Cc2ccncc2)[C@H](C)CN([C@H](C)CO)S3(=O)=O)cc1
[3]
  AC50: 10.2 µM (active)
[5]
  AC50: 14.2 µM (active)

## Cc1cc2nc(NC(=N)N)nc(C)c2cc1C
[1]
  AC50: 3.41 µM (active)

## Cc1cccc(N2CCN(C(=O)c3ccc(S(=O)(=O)N(C)c4ccccc4)cc3)CC2)c1C
[6]
  IC50: > 80 µM (inactive)
[7]
  IC50: 12 µM (active)

## C[C@H](CO)N1C[C@H](C)[C@@H](CN(C)C(=O)Nc2cccc(C(F)(F)F)c2)OCc2ccccc2-c2ccccc2C1=O
[3]
  AC50: < 0.285 µM (active)
[5]
  AC50: 0.346 µM (active)

## COc1ccc(C(=O)Cn2c(=O)oc3ccc(C)cc32)cc1
[2]
  AC50: 36.7 µM (active)

## Cc1cccc(CSCCNC(=O)c2ccc(N(C)S(=O)(=O)c3ccccc3)cc2)c1
[2]
  AC50: > 100 µM (inactive)

## CC(C)Cn1c(N)c(C(=O)CSc2ccc3c(c2)OCCO3)c(=O)n(C)c1=O
[6]
  IC50: > 80 µM (inactive)
[8]
  AC50: 2.98 µM (active)
[9]
  AC50: 0.674 µM (active)
[10]
  AC50: 1.74 µM (active)
[11]
  AC50: 1.57 µM (active)
[12]
  AC50: 31.6 µM (inconclusive)

## COCCCNC(=O)C(=O)Nc1ccc2c(c1)N(S(=O)(=O)c1cccs1)CCC2
[13]
  EC50: 4.45 µM (inconclusive)
[14]
  EC50: 6.86 µM (active)
[15]
  EC50: 0.419 µM (active)
[6]
  IC50: > 80 µM (inactive)

## COc1ccccc1/N=C(\C)C1=C(O)CC(c2ccccc2)CC1=O (stereo not given)
[6]
  IC50: > 80 µM (inactive)

## CC(C)n1c(CN(C)Cc2ccccc2)nc2c1c(=O)n(C)c(=O)n2C
[13]
  EC50: 43 µM (active)
[14]
  EC50: > 120 µM (not active)
[15]
  EC50: > 120 µM (not active)
[6]
  IC50: > 80 µM (inactive)

## COc1ccc(CCNc2cc(N3CCN(C(=O)c4ccccc4F)CC3)ccc2[N+](=O)[O-])cc1OC
[6]
  IC50: > 80 µM (inactive)
[9]
  AC50: 1.26 µM (active)
[10]
  AC50: 0.845 µM (active)
[11]
  AC50: 0.811 µM (active)

## CCNc1ncnc2c1cnn2C1CCCO1 (stereo not given)
[4]
  AC50: 13.5 µM (active)

## CCOC(=O)N/N=C/c1c(C)nn(-c2cccc(C(F)(F)F)c2)c1Cl
[6]
  IC50: 69.6 µM (inactive)

## Cc1c(Cl)c([N+](=O)[O-])nn1CCCC(=O)N(Cc1ccccc1)Cc1ccccc1
[16]
  EC50: 1.86 µM (active)
[17]
  EC50: 29.7 µM (active)
[18]
  IC50: 10 µM (active)
[19]
  IC50: 11 µM (active)

## CCN(CC)CCCN(Cc1cc2cc3c(cc2nc1O)OCO3)C(S)=NCCCOC
[20]
  AC50: > 20 µM (inactive)
